Where two headings read alike, the source gives them in different places.
Columns and labels:
HRV3C = HRV3C (Human rhinovirus 14, UniProt P03303); assay: HRV3C protease assay (duplex, SAMDI-MS); type: biochemical, HRV; conditions: 30 mins preincubation
In short: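 HRV3C was preincubated 30 min with compound alongside 3CLpro at ambient temperature, then two biotinylated peptide substrates were added for 30 min. Quenching used 0.5% formic acid (final). Cleaved product was captured on neutravidin SAMDI arrays and quantified by MALDI-TOF as product/internal-standard AUC ratio; IC50 from four-parameter fit.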

[1] = tested on: human beta-coronavirus OC43; assay: microbe, parasite or virus in culture; type: cell-based; conditions: Betacoronavirus 1, OC43, HeLa, 144 h, OC43 in HeLa cells, 6 days at 33° C., class symbols; read-out: EC50
[2] = Cytotoxicity plates without OC43 virus (cell-titer-glo); type: cell-based, human; conditions: human; HeLa cells without OC43 virus, class symbols
In short: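 Run as a virus-free counterpart of the OC43 cytopathic-effect assay. Attached HeLa cells received compound dilutions in EMEM with 2% FBS and were kept 6 days at 33 °C. Cell viability was then measured by CellTiter-Glo luminescence.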

[3] = tested on: SARS-CoV-2-GHB-03021/2020; assay: SARS-CoV-2 Infection Model in Huh7 Cells; type: cell-based; conditions: Severe acute respiratory syndrome coronavirus 2, Huh-7, 96 h, SARS-CoV-2, day 4 p.i., MTS, class symbols
[4] = tested on: SARS-CoV-2-GHB-03021/2020; assay: microbe, parasite or virus in culture; type: cell-based; conditions: Severe acute respiratory syndrome coronavirus 2, Vero C1008, 96 h; read-out: VeroE6 + CP (EC50)
human cathepsin L = biological target: T1, human cathepsin L (Homo sapiens, UniProt P07711); assay: cathepsin L assay; type: biochemical; conditions: 10 pM human cathepsin L, Z-FR-AMC 2 μM
T1 construct: purchased R&D Systems
In short: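 Reactions began by adding 2 μM (final) Z-FR-AMC substrate to 10 pM human cathepsin L that had been preincubated 30 min with inhibitor. Kinetic AMC fluorescence at 355/460 nm over 30 min at 2-min intervals; four-parameter fitting gave IC50 values.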

in vitro [5] = conditions: human
in vitro [6] = conditions: African green monkey, VeroE6 + CP (CC50), Vero E6-eGFP cells with CP-100356, absence of virus, MTS
3CLpro = 3CLpro (Severe acute respiratory syndrome coronavirus 2, UniProt P0DTD1); assay: SARS-CoV-2 3CLpro protease assay (duplex, SAMDI-MS); type: biochemical; design: For the duplex assay, 3CLpro and HRV3C was added; conditions: 3CLpro, 30 mins preincubation, class symbols; read-out: SARS-Cov-2 IC50
[7] = HRV3C, class symbols, read-out: HRV IC50
[8] = HRV3C, bound, read-out: HRV IC50

| Compound | IC50 (HRV3C; [7]) [µM] | EC50 [1] [µM] | CC50 at 6 days [2] [µM] | EC50 [3] [µM] | EC50 [4] [µM] | IC50 (human cathepsin L; class symbols) [µM] | CC50 (in vitro [5]) [µM] | CC50 (in vitro [6]; numeric bounds) [µM] | IC50 (3CLpro) [µM] | IC50 (HRV3C; [8]) [µM] | IC50 (HRV3C; HRV IC50, HRV3C, bound) [µM] | CC50 (in vitro [6]; class symbols) [µM] | IC50 (human cathepsin L; bound) [µM] |
| --- | --- | --- | --- | --- | --- | --- | --- | --- | --- | --- | --- | --- | --- |
| COc1cccc2[nH]c(C(=O)N3C[C@@H]4CCC[C@@H]4[C@H]3C(=O)NC(C[C@@H]3CCNC3=O)C(=O)C(=O)NCc3ccccc3)nc12 (stereo partly drawn) [Compound 36, 3-[[(1S,3aR,6aS)-2-(4-methoxy-1H-1,3-benzodiazole-2-carbonyl)-hexahydro-1H-cyclopenta[c]pyrrol-1-yl]formamido]-N-benzyl-2-oxo-4-[(3S)-2-oxopyrrolidin-3-yl]butanamide] | 20 to 100 | 10 to 100 | > 10 | 10 to 100 | 10 to 100 | ≥ 10 | > 100 | > 100 | 0.02 to 0.2 | – | – | – | – |
| COc1cccc2[nH]c(C(=O)N3C[C@]4(C[C@H]3C(=O)NC(C[C@@H]3CCCNC3=O)C(=O)C(=O)NC3CC3)CC4(F)F)cc12 (stereo partly drawn) [Compound 38, N-cyclopropyl-3-{[(3S,6S)-1,1-difluoro-5-(4-methoxy-1H-indole-2-carbonyl)-5-azaspiro[2.4]heptan-6-yl]formamido}-2-oxo-4-[(3S)-2-oxopiperidin-3-yl]butanamide] | 0.2 to 2 | 0.1 to 1 | > 10 | 1 to 10 | 1 to 10 | < 0.1 | > 100 | > 100 | 0.02 to 0.2 | – | – | – | – |
| COc1cccc2[nH]c(C(=O)N3C[C@]4(C[C@H]3C(=O)N[C@@H](C[C@@H]3CCNC3=O)C(=O)CO)CC4(F)F)cc12 [Compound 39] | – | 0.1 to 1 | > 10 | 1 to 10 | 1 to 10 | ≥ 10 | > 100 | > 100 | 0.02 to 0.2 | > 10 | – | – | – |
| O=C(NCc1ccccc1)C(=O)C(C[C@@H]1CCNC1=O)NC(=O)[C@@H]1C[C@@H](C2CC2)CN1C(=O)c1cc2ccccc2[nH]1 (stereo partly drawn) [Compound 40, N-benzyl-3-{[(2S,4S)-4-cyclopropyl-1-(1H-indole-2-carbonyl)pyrrolidin-2-yl]formamido}-2-oxo-4-[(3S)-2-oxopyrrolidin-3-yl]butanamide] | 0.2 to 2 | 0.1 to 1 | > 10 | 1 to 10 | 1 to 10 | 0.1 to 1 | > 10 | > 100 | 0.2 to 2 | – | – | – | – |
| COc1cccc2[nH]c(C(=O)N3CC4(CC4)C[C@H]3C(=O)N[C@@H](C[C@@H]3CCCNC3=O)C(=O)CO)cc12 [Compound 42, (S)—N—((S)-4-hydroxy-3-oxo-1-((S)-2-oxopiperidin-3-yl)butan-2-yl)-5-(4-methoxy-1H-indole-2-carbonyl)-5-azaspiro[2.4]heptane-6-carboxamide] | 2 to 20 | 0.1 to 1 | > 10 | 1 to 10 | 1 to 10 | ≥ 10 | > 100 | > 100 | 0.02 to 0.2 | – | – | – | – |
| COc1cccc2[nH]c(C(=O)N3C[C@H]4[C@@H]([C@H]3C(=O)N[C@@H](C[C@@H]3CCNC3=O)C(=O)CO)C4(C)C)cc12 [Compound 43] | – | 0.1 to 1 | > 10 | 1 to 10 | 1 to 10 | ≥ 10 | > 100 | > 100 | 0.02 to 0.2 | – | > 10 | – | – |
| COc1cccc2[nH]c(C(=O)N3CCC4(CC4)C[C@H]3C(=O)N[C@@H](C[C@@H]3CCCNC3=O)C(=O)CO)cc12 [Compound 44] | – | 1 to 10 | > 10 | 10 to 100 | 10 to 100 | ≥ 10 | > 10 | > 100 | 0.02 to 0.2 | – | > 10 | – | – |
| COc1cccc2[nH]c(C(=O)N3C[C@H](C(F)(F)F)C[C@H]3C(=O)N[C@@H](C[C@@H]3CCCNC3=O)C(=O)COCc3ccccc3)cc12 [Compound 45A] | 2 to 20 | 0.1 to 1 | > 10 | 1 to 10 | 1 to 10 | ≥ 10 | > 10 | – | 0.02 to 0.2 | – | – | > 10 | – |
| COc1cccc2[nH]c(C(=O)N3C[C@H](C(F)(F)F)C[C@H]3C(=O)N[C@@H](C[C@@H]3CCCNC3=O)C(=O)CO)cc12 [Compound 45] | 2 to 20 | 0.1 to 1 | > 10 | 1 to 10 | < 1 | ≥ 10 | > 100 | > 100 | 0.02 to 0.2 | – | – | – | – |
| COc1cccc2[nH]c(C(=O)N3C[C@]4(C[C@H]3C(=O)NC(C[C@@H]3CCCNC3=O)C(=O)C(N)=O)CC4(F)F)cc12 (stereo partly drawn) [Compound 46, (3S,6S)—N-(4-amino-3,4-dioxo-1-((S)-2-oxopiperidin-3-yl)butan-2-yl)-1,1-difluoro-5-(4-methoxy-1H-indole-2-carbonyl)-5-azaspiro[2.4]heptane-6-carboxamide] | 0.2 to 2 | 10 to 100 | > 10 | 10 to 100 | 10 to 100 | 1 to 10 | > 10 | > 100 | 0.02 to 0.2 | – | – | – | – |
| COc1cccc2[nH]c(C(=O)N3C[C@]4(C[C@H]3C(=O)N[C@@H](C[C@@H]3CCCNC3=O)C(=O)CO)CC4(F)F)cc12 [Compound 47, (3S,6S)-1,1-difluoro-N-[(2S)-4-hydroxy-3-oxo-1-[(3S)-2-oxopiperidin-3-yl]butan-2-yl]-5-(4-methoxy-1H-indole-2-carbonyl)-5-azaspiro[2.4]heptane-6-carboxamide] | 2 to 20 | 0.1 to 1 | > 10 | 1 to 10 | 1 to 10 | ≥ 10 | > 100 | > 100 | 0.02 to 0.2 | – | – | – | – |
| COc1cccc2[nH]c(C(=O)N3C[C@]4(C[C@H]3C(=O)N[C@@H](C[C@@H]3CCCNC3=O)C(=O)COCc3ccccc3)CC4(F)F)cc12 [Compound 47A, (3S,6S)—N-[(2S)-4-(benzyloxy)-3-oxo-1-[(3S)-2-oxopiperidin-3-yl]butan-2-yl]-1,1-difluoro-5-(4-methoxy-1H-indole-2-carbonyl)-5-azaspiro[2.4]heptane-6-carboxamide] | 2 to 20 | < 0.1 | > 10 | 1 to 10 | 1 to 10 | ≥ 10 | > 10 | > 100 | 0.02 to 0.2 | – | – | – | – |
| CC(C)[C@@H]1C[C@@H](C(=O)NC(C[C@@H]2CCNC2=O)C(=O)C(=O)NCc2ccccc2)N(C(=O)c2cc3ccccc3[nH]2)C1 (stereo partly drawn) [Compound 48, N-benzyl-3-{[(2S,4S)-1-(1H-indole-2-carbonyl)-4-isopropylpyrrolidin-2-yl]formamido}-2-oxo-4-[(3S)-2-oxopyrrolidin-3-yl]butanamide] | 2 to 20 | 0.1 to 1 | > 10 | 1 to 10 | 1 to 10 | 0.1 to 1 | > 10 | > 100 | 0.2 to 2 | – | – | – | – |
| COc1cccc2[nH]c(C(=O)N3C[C@H]4[C@@H]([C@H]3C(=O)N[C@@H](C[C@@H]3CCCNC3=O)C(=O)CO)C4(C)C)cc12 [Compound 49, (1R,2S,5S)—N-[(2S)-4-hydroxy-3-oxo-1-[(3S)-2-oxopiperidin-3-yl]butan-2-yl]-3-(4-methoxy-1H-indole-2-carbonyl)-6,6-dimethyl-3-azabicyclo[3.1.0]hexane-2-carboxamide] | – | 0.1 to 1 | > 10 | 1 to 10 | 1 to 10 | – | > 100 | > 100 | < 0.02 | > 10 | – | – | > 3.3 |
